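Method: 48-hour compound exposure of cells in 96-well plates, five concentrations, linear interpolation of endpoints. Here, GI50 denotes the concentration required for 50% inhibition of growth. TGI: concentration producing complete growth inhibition.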
Key:
Test in all cases: growth of human tumour cells (NCI), 48 h
[1] = system: SK-MEL-2 melanoma
[2] = system: 786-0 renal
[3] = system: SK-OV-3 ovarian
[4] = system: NCI/ADR-RES ovarian
[5] = system: SN12C renal
[6] = system: TK-10 renal
[7] = system: HCC-2998 colon
[8] = system: HS 578T breast
[9] = system: COLO 205 colon
[10] = system: SNB-75 CNS
[11] = system: RXF 393 renal
[12] = system: UACC-257 melanoma
[13] = system: KM12 colon
[14] = system: EKVX NSCLC
[15] = system: K-562 leukemia
[16] = system: SF-295 CNS

| SMILES | TGI [1] | TGI [2] | TGI [3] | TGI [4] | TGI [5] | TGI [6] | TGI [7] | TGI [8] | TGI [9] | TGI [10] | TGI [11] | TGI [12] | TGI [13] | TGI [14] | TGI [15] | TGI [16] | GI50 [4] |
| --- | --- | --- | --- | --- | --- | --- | --- | --- | --- | --- | --- | --- | --- | --- | --- | --- | --- |
| COC(=O)C1(OC(=O)Sc2ccccc2)CCN(C)CC1 | > 100 µM | 50.3 µM | > 69.1 µM | > 48.4 µM | 21.3 µM | > 75.6 µM | > 73 µM | 70.9 µM | 29.8 µM | 40.1 µM | 34.9 µM | 56.6 µM | > 47.4 µM | > 84.6 µM | 61.1 µM | > 59.5 µM |  |
| Cc1ccc(-c2cc(-c3ccc(Cl)cc3)nc(/N=C3\C(=O)N(CN4CCOCC4)c4ccc(Cl)cc43)n2)cc1 | 39.9 µM | 44.5 µM | 84.4 µM | 61.3 µM | 59.1 µM | 72.2 µM | 36.5 µM | > 100 µM | 49.7 µM | 97.1 µM | 26.9 µM | > 100 µM | 56.8 µM | 89.4 µM | 90.9 µM | > 100 µM |  |
| Cc1cc(C)nc(NS(=O)(=O)c2ccc(NNC(=O)c3cccc4c(=O)c5ccccc5[nH]c34)cc2)n1 | 76.5 µM | > 100 µM | > 100 µM | > 100 µM | > 100 µM | > 100 µM | > 100 µM | > 100 µM | > 100 µM | 77.7 µM | > 100 µM | > 100 µM | > 100 µM | 98.9 µM | > 100 µM | > 100 µM |  |
| CN1CCN(CN2C(=O)C3C4C=CC(C3C2=O)C2C(=O)N(CN3CCN(C)CC3)C(=O)C42)CC1 (stereo unspecified) | > 100 µM | 97.7 µM | > 100 µM | > 100 µM | > 100 µM | > 100 µM | > 100 µM | > 100 µM | > 100 µM | > 100 µM | > 70.2 µM | > 100 µM | > 100 µM | > 100 µM | > 100 µM | > 100 µM |  |
| CCOC(=O)C1=C(N)Oc2ccc(Br)cc2C1C(C#N)C(=O)OCC (stereo unspecified) | 39.1 µM | 70.1 µM | 47.1 µM | 41 µM | > 100 µM | 36.2 µM | 32.7 µM | 61 µM | 42.3 µM | > 100 µM | 22 µM | 61.7 µM | 62.7 µM | > 100 µM | > 100 µM | > 100 µM |  |
| O=S(=O)(O)c1ccc(N=Nc2ccc(N=Nc3c(O)ccc4ccccc34)cc2)cc1 | > 100 µM | > 100 µM | > 100 µM | > 100 µM | > 100 µM | > 100 µM | > 100 µM | > 100 µM | > 100 µM | > 100 µM | > 100 µM | > 100 µM | > 100 µM | > 100 µM | > 100 µM | > 100 µM |  |
| COc1ccc(OC)c(C2Cc3cnc4nc(N)nc(N)c4c3C2)c1 (stereo unspecified) | 42.2 µM | 89.9 µM | > 100 µM | > 100 µM | 56.8 µM | 79.8 µM | 41.9 µM | > 100 µM | 49 µM | 47.5 µM | 43.2 µM | 40.1 µM | 55.7 µM | > 100 µM | > 100 µM | 93.7 µM |  |
| CCCCn1c(C)c2c(c1C)C(=O)N(CC(O)CN1CCc3ccccc3C1)C2=O (stereo unspecified) | 14.8 µM | > 100 µM | > 100 µM | > 100 µM | > 100 µM | > 100 µM | > 100 µM | > 100 µM | > 100 µM | > 100 µM | > 100 µM | > 100 µM | > 100 µM | > 100 µM | > 100 µM | > 100 µM |  |
| N#CC1(C#N)C2CCCCC23OC(=N)C1(C#N)C(c1ccccc1)O3 (stereo unspecified) | 43 µM | 33.7 µM | > 100 µM | > 100 µM | 26.7 µM | 37.6 µM | 29 µM | 4.76 µM | 34.1 µM | 11.7 µM | > 100 µM | 37.3 µM | 25.8 µM | 60.6 µM | > 100 µM | > 100 µM |  |
| S=c1[nH]n2c(COc3cccc(OCc4nnc5sc(=S)[nH]n45)c3)nnc2s1 | > 100 µM | > 100 µM | > 100 µM | > 100 µM | > 100 µM | > 100 µM | > 100 µM | > 100 µM | > 100 µM | > 100 µM | > 100 µM | > 100 µM | > 100 µM | > 100 µM | > 100 µM | > 100 µM |  |
| CC(/C=N\NC(=S)N1CCCCC1)=N/NC(=S)N1CCCCC1 | 6.36 µM | 13.2 µM | 6.08 µM | 6.9 µM | 10.8 µM | 11.8 µM | 11.7 µM | 14.7 µM | 5.85 µM | 8.08 µM | 4.28 µM | 15.4 µM | 13.7 µM | 14.8 µM | > 100 µM | 14.4 µM |  |
| COc1cc(C2SCC(=O)N2c2ccc(Cl)c(Cl)c2)cc(OC)c1OC (stereo unspecified) | > 100 µM | > 100 µM | > 100 µM | > 100 µM | > 100 µM | > 100 µM | > 100 µM | > 100 µM | > 100 µM | > 100 µM | 43.5 µM | > 100 µM | 51 µM | > 87.9 µM | > 100 µM | > 100 µM |  |
| CC(NNC(=O)CC(=O)N(C(=O)c1ccccc1)c1ccc(Cl)cc1)c1cc2ccccc2oc1=O (stereo unspecified) | > 10 µM | > 10 µM | > 10 µM | > 10 µM | > 10 µM | > 10 µM | > 10 µM | > 10 µM | > 10 µM | > 10 µM | > 10 µM | > 10 µM | > 10 µM | > 10 µM | > 10 µM | > 10 µM |  |
| CN(C)/C=N/n1c2ccccc2c2ccccc21 | > 100 µM | > 100 µM | > 100 µM | > 100 µM | > 100 µM | > 100 µM | > 100 µM | > 100 µM | > 100 µM | > 100 µM | > 100 µM | > 100 µM | > 100 µM | > 100 µM | > 100 µM | > 100 µM |  |
| CCO/C=N/NC(=O)CSc1nc2ccc(I)cc2c(=O)n1Cc1ccccc1 | 65.1 µM | > 100 µM | > 100 µM | > 100 µM | > 100 µM | > 100 µM | > 100 µM | > 100 µM | > 100 µM | > 100 µM | > 100 µM | > 100 µM | > 100 µM | > 100 µM | > 100 µM | > 100 µM |  |
| CC1(C)OC(=C(C#N)C#N)C(C#N)=C1/C=C/c1ccncc1 | 6.44 µM | 3.66 µM | 16.8 µM | 4.13 µM | 5.75 µM | 4.12 µM | 19.5 µM | 17.9 µM | 3.27 µM | 8.68 µM | 5.07 µM | 8.27 µM | 9.14 µM | 5.46 µM | 7.04 µM | 5.28 µM |  |
| O=C(c1cc(Cl)cc(Cl)c1)N1CCN(C(=O)c2cc(Cl)cc(Cl)c2)C1=S | 34.1 µM | 7.58 µM | 29.8 µM | > 100 µM | 31.1 µM | 23.2 µM | 31 µM | > 100 µM | 35.2 µM | 27.8 µM | 26.4 µM | 28.8 µM | 24.8 µM | 31.9 µM | > 50.8 µM | 44.7 µM | 31.7 µM |
| C[C@H]1C2Cc3cc(N)ccc3[C@@]1(C)CCN2CCc1ccccc1 | > 100 µM | > 100 µM | > 100 µM | > 100 µM | > 100 µM | > 100 µM | 21.7 µM | > 100 µM | 32.9 µM | > 100 µM | > 100 µM | > 100 µM | > 100 µM | > 100 µM | > 100 µM | 98.8 µM |  |
| O=P(O)(Cc1ccccc1)c1ccccc1-c1ccccc1 | > 100 µM | > 100 µM | > 100 µM | > 100 µM | > 100 µM | > 100 µM | > 100 µM | > 100 µM | > 100 µM | > 100 µM | > 100 µM | > 100 µM | > 100 µM | > 100 µM | > 100 µM | > 100 µM |  |
| CC(=O)Nc1ccc(-c2nc3cc(Cl)ccc3o2)cc1 | > 50 µM | > 50 µM | > 50 µM | > 50 µM | > 50 µM | > 50 µM | > 50 µM | > 50 µM | > 50 µM | > 50 µM | > 50 µM | > 50 µM | > 50 µM | > 50 µM | > 50 µM | > 50 µM |  |
| CCCCCC(/C=C/C1CCC(=O)C1CC#C[Si](C)(C)C)OCc1ccccc1 (stereo unspecified) | 35 µM | 28.3 µM | > 100 µM | 41.8 µM | 39 µM | 60.5 µM | 48.1 µM | 39.6 µM | 39.3 µM | 41.3 µM | 30.1 µM | 39.6 µM | 33 µM | 39.8 µM | 41.8 µM | 39.8 µM |  |
| Oc1ccc(-c2nc(-c3ccc(F)cc3)c(-c3ccc4ccccc4n3)[nH]2)cc1 | 32.9 µM | 66 µM | 30.7 µM | 20.5 µM | 32.1 µM | 26 µM | 15.3 µM | 28.6 µM | 29.7 µM | 41.6 µM | 31.9 µM | 26.3 µM | 19.1 µM | 40.7 µM | > 100 µM | 24 µM |  |
| Cn1c(=O)c2c(no[n+]2[O-])c2ccccc21 | 28.7 µM | 39.1 µM | 77 µM | 47.3 µM | 59.8 µM | 56.5 µM | 27.3 µM | 62.2 µM | 35.8 µM | 35.9 µM | 62 µM | 33.2 µM | 25.2 µM | 46.1 µM | > 100 µM | 61.1 µM |  |
| CC(CCC#N)(CCC#N)C(=O)CC(O)(C(F)(F)F)C(F)(F)F | 89.2 µM | 4.72 µM | > 100 µM | 22.7 µM | 23.5 µM | 25.1 µM | 31.3 µM | 60.6 µM | 4.9 µM | 34.5 µM | 5.03 µM | 21.1 µM | 34.2 µM | 44.1 µM | 5.87 µM | 41 µM |  |
| CC(C)(C)c1cc(C(=O)/C=C/C=C/c2ccccc2)cc(C(C)(C)C)c1O | 34.5 µM | 36.1 µM | > 100 µM | 30.5 µM | 77.3 µM | 59.2 µM | 28.2 µM | > 100 µM | 34.9 µM | 67.2 µM | 15.1 µM | 25.4 µM | > 92.7 µM | > 100 µM | > 100 µM | > 100 µM |  |

— PubChem BioAssay (NCI)
